# Results published in US20080021034A1, “Compositions and methods for modulating gated ion channels” (PainCeptor Pharma Corporation, priority 2006, published 2008).
# Test system: proton-gated ion channels (ASIC)
# Assay: Two-electrode voltage clamp in Xenopus laevis oocytes expressing gated ion channels (Xo)
# Assay type: cell-based
# Settings: acidic solution (pH<7) activation
# Experimental: Two-electrode voltage clamp electrophysiological assays in Xenopus laevis oocytes expressing gated ion channels are performed as follows:
# Oocytes are surgically removed from adult Xenopus laevis and treated for 2 h at room temperature with 1 mg/ml type I collagenase (Sigma) in Barth's solution under mild agitation. Selected oocytes at stage IV-V are defolliculated manually before nuclear microinjection of 2.5-5 ng of a suitable expression vector, such as pCDNA3, comprising the nucleotide sequence encoding a gated ion channel subunit protein. In such an experiment, the oocytes express homomultimeric proton-gated ion channels on their surface. In an alternate experiment, one, two, three or more vectors comprising the coding sequences for distinct gated ion channel subunits are co-injected in the oocyte nuclei. In the latter case, oocytes express heteromultimeric proton-gated ion channels. For example, ASIC2a and/or ASIC3 subunits in pcDNA3 vector are co-injected at a 1:1 cDNA ratio. After 2-4 days of expression at 19° C. in Barth's solution containing […] gentamicin and 1.8 mM CaCl2, gated ion channels are activated by applying an acidic solution (pH<7) and currents are recorded in a two electrode voltage-clamp configuration, using an OC-725B amplifier (Warner Instruments). Currents are acquired and digitized at 500 Hz on an Apple Imac G3 computer with an A/D NB-MIO-16XL interface (National Instruments) and recorded traces are post-filtered at 100 Hz in Axograph (Axon Instruments) (Neher, E. and Sakmann, B. (1976) Nature 260:799-802). Once impaled with the microelectrodes, oocytes are continuously superfused at 10-12 ml/min with a modified Ringer's solution containing 97 mM NaCl, 2 mM KCl, 1.8 mM CaCl2, and 10 mM HEPES brought to pH 7.4 with NaOH (Control Ringer). Test Ringer solution is prepared by replacing HEPES with MES and adjusting the pH to the desired acidic value. Compounds of the present invention are prepared in both the Control and Test Ringer solutions and applied to oocytes at room temperature through a computer-controlled switching valve system. Osmolarity of all solutions is adjusted to 235 mOsm with choline chloride. Similarly, recordings can also be acquired in an automated multichannel oocytes system as the OpusExpress™ (Molecular Devices, Sunnyvale, USA).
Structure (SMILES),percent effect on acid-evoked current (two-electrode voltage clamp),Xo: percent binding data
CCOC(=O)N1CC(c2ccccc2)=C2CCN(C)CC2N1C(=O)OCC (stereo not shown) [Compound 1],< 20%,–
CCOC(=O)N1CC(c2ccccc2)=C2CCN(C(=O)OC(C)(C)C)C[C@@H]2N1C(=O)OCC [Compound 2],< 20%,–
CCOC(=O)N1NCC(c2ccccc2)=C2CCN(C)CC21 (stereo not shown) [Compound 3],< 20%,–
N#CC1=CCC(c2ccccc2)=C2CCNCC12 (stereo not shown) [Compound 4],< 20%,–
CC(C)(C)OC(=O)N1CCC2=C(c3ccccc3)CC=C(C#N)C2C1 (stereo not shown) [Compound 5],< 20%,–
COC(=O)C1=C(C(=O)OC)C2CN(C(=O)OC(C)(C)C)CCC2=C(c2ccccc2)C1 (stereo not shown) [Compound 6],< 20%,–
CN1CCC2=C(c3ccccc3)CC=C(C#N)[C@H]2C1 [Compound 7],< 20%,–
COC(=O)C1=CCC(c2ccccc2)=C2CCN(C(=O)OC(C)(C)C)CC12 (stereo not shown) [Compound 8],< 20%,–
CN1CCC2=C(c3ccccc3)CCC(C(=O)O)C2C1 (stereo not shown) [Compound 9],< 20%,–
CCOC(=O)C1CCC(c2ccccc2)=C2CCN(C)CC21 (stereo not shown) [Compound 10],< 20%,–
CN1CCC2=C(c3ccccc3)CCC(C(=O)OCCO)C2C1 (stereo not shown) [Compound 11],< 20%,–
CN1CCC2=C(c3ccccc3)CCC(C(=O)Nc3cccc(Cl)c3)C2C1 (stereo not shown) [Compound 12],< 20%,–
CN1CCC2=C(c3ccccc3)CCC(C(=O)Nc3ccc(Cl)cc3)C2C1 (stereo not shown) [Compound 13],< 20%,–
CN1CCC2=C(c3ccccc3)CC[C@@H](C(=O)Nc3ccccc3Cl)C2C1 (stereo partly shown) [Compound 14],< 20%,–
C#CCNC(=O)[C@@H]1CCC(c2ccccc2)=C2CCN(C)CC21 (stereo partly shown) [Compound 15],< 20%,–
CN1CCC2=C(c3ccccc3)CC[C@@H](C(=O)N(C)C)C2C1 (stereo partly shown) [Compound 16],< 20%,–
CN1CCC2=C(c3ccccc3)CC[C@@H](C(=O)Nc3ccccc3)C2C1 (stereo partly shown) [Compound 17],< 20%,–
CN1CCC2=C(c3ccccc3)CC[C@@H](C(=O)Nc3ccccn3)C2C1 (stereo partly shown) [Compound 18],< 20%,–
CN1CCC2=C(c3ccccc3)CC[C@@H](C(=O)Nc3cccnc3)C2C1 (stereo partly shown) [Compound 19],< 20%,–
CN1CCC2=C(c3ccccc3)CC[C@@H](C(=O)NCCO)C2C1 (stereo partly shown) [Compound 20],< 20%,–
CN1CCC2=C(c3ccccc3)CC[C@@H](C(=O)NCc3ccccc3)[C@H]2C1 [Compound 21],< 20%,–
CN1CCC2=C(c3ccccc3)CC[C@@H](C(=O)N3CCNCC3)[C@H]2C1 [Compound 22],< 20%,–
CN1CCC2=C(c3ccccc3)CC[C@@H]([N+](=O)[O-])[C@H]2C1 [Compound 23],< 20%,–
CC(=O)N[C@@H]1CCC(c2ccccc2)=C2CCN(C)C[C@@H]21 [Compound 24],< 20%,–
CN1CCC2=C(c3ccccc3)CC[C@@H](NC(=O)c3ccccc3)[C@H]2C1 [Compound 25],< 20%,–
CN1CCC2=C(c3ccccc3)CCC(N)C2C1 (stereo not shown) [Compound 26],< 20%,–
CN1CCC2=C(c3ccccc3)CCC(NC(=O)c3cccc(/C=N/O)c3)[C@H]2C1 (stereo partly shown) [Compound 27],< 20%,–
CN1CCC2=C(c3ccccc3)CCC(NC(=O)c3ccc(/C=N/O)cc3)[C@H]2C1 (stereo partly shown) [Compound 28],< 20%,–

Structure (SMILES),percent effect on acid-evoked current (two-electrode voltage clamp),Xo: percent binding data
CN1CCC2=C(c3ccccc3)CC[C@@H](NC(=O)c3ccc(O)cc3)[C@H]2C1 [Compound 29],–,< 20%
CN1CCC2=C(c3ccccc3)CCC(NC(=O)c3cccc(O)c3)C2C1 (stereo not shown) [Compound 30],< 20%,–
CC(C)(C)OC(=O)N1CCC2=C(c3ccccc3)CC[C@@H]([N+](=O)[O-])[C@H]2C1 [Compound 31],< 20%,–
CN1CCC2=C(c3ccccc3)CCC(NC(=O)c3cccc(C=O)c3)C2C1 (stereo not shown) [Compound 32],< 20%,–
CN1CCC2=C(c3ccccc3)CCC(NC(=O)c3ccc(C=O)cc3)C2C1 (stereo not shown) [Compound 33],< 20%,–
CN1CCC2=C(c3ccccc3)CCC(NC(=O)c3ccccc3O)C2C1 (stereo not shown) [Compound 34],< 20%,–
CN1CCC2=C(c3ccccc3)CCC(NC(=O)c3ccc(Cl)cc3)C2C1 (stereo not shown) [Compound 35],< 20%,–
CN1CCC2=C(c3ccccc3)CCC(NC(=O)c3ccc(/C=N/O)cc3)C2C1 (stereo not shown) [Compound 36],< 20%,–
CN1CCC(O)(/C(=N\NC(=O)c2ccccc2N)c2ccccc2)CC1 [Compound 37],< 20%,–
CN1CC[C@@H]2/C(=N/Nc3ccc([N+](=O)[O-])cc3[N+](=O)[O-])c3ccccc3[C@@H]2C1 [Compound 39],–,< 20%
CN1CCC(O)(/C(=N/N)c2ccccc2)CC1 [Compound 39a],< 20%,–
CN1CC[C@@H]2C(=O)c3ccccc3[C@@H]2C1 [Compound 40],< 20%,–
CN1CC[C@@H]2/C(=N/O)c3ccccc3[C@@H]2C1 [Compound 41],< 20%,–
CN1CCC(O)(/C(=N\Nc2ccc([N+](=O)[O-])cc2[N+](=O)[O-])c2ccccc2)CC1 [Compound 42],–,< 20%
CN1CC[C@@H]2/C(=N\NC(N)=O)c3ccccc3[C@@H]2C1 [Compound 43],< 20%,–
CN1CC=C(/C(=N\Nc2ccc([N+](=O)[O-])cc2[N+](=O)[O-])c2ccccc2)CC1 [Compound 44],–,< 20%
CN1CCC(O)(/C(=N\NC(=O)c2ccc(O)cc2O)c2ccccc2)CC1 [Compound 45],< 20%,–
CN1CCC(O)(/C(=N\Nc2ccccc2)c2ccccc2)CC1 [Compound 46],< 20%,–
CN1CCC(O)(/C(=N\NC(=O)c2ccco2)c2ccccc2)CC1 [Compound 47],< 20%,–
CN1CCC(O)(/C(=N\Nc2ccccn2)c2ccccc2)CC1 [Compound 48],< 20%,–
CN1CCC(O)(/C(=N\NC(=O)c2ccccc2[N+](=O)[O-])c2ccccc2)CC1 [Compound 50],< 20%,–
CCOC(=O)c1cccnc1N/N=C(/c1ccccc1)C1(O)CCN(C)CC1 [Compound 51],< 20%,–
CN1CCC(O)(C(=NNC(N)=O)c2ccccc2)CC1 [Compound 52],< 20%,–
CN1CCC(O)(/C(=N\NC(=O)c2cccc(O)c2)c2ccccc2)CC1 [Compound 54],< 20%,–
CCOC(=O)C1=C(Nc2ccccc2)CCN(Cc2ccccc2)C1 [Compound 55],–,<20%
CN1CCC2=C(c3ccccc3)Cn3c(=O)n(C)c(=O)n3C2C1 (stereo not shown) [Compound 56],< 20%,–
CN1CCC2=C(c3ccccc3)Cn3c(=O)n(-c4ccccc4)c(=O)n3C2C1 (stereo not shown) [Compound 57],< 20%,–
